# From PubChem BioAssay (NCI)
#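 Step 1: Grow cells in 96-well plates. Step 2: Expose to compound for 48 hours at 5 concentrations. Step 3: Interpolate endpoints linearly; if unreached, use highest concentration. GI50 = concentration required for 50% inhibition of growth. TGI marks complete inhibition of growth.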
# Tests used:
# Experiment in all cases: NCI anticancer screen, dose series, 48 h
# 786-0 renal = system: 786-0 renal
# A498 renal = system: A498 renal
# A549 NSCLC = system: A549 NSCLC
# BT-549 breast = system: BT-549 breast
# CCRF-CEM leukemia = system: CCRF-CEM leukemia
# COLO 205 colon = system: COLO 205 colon
# DU-145 prostate = system: DU-145 prostate
# EKVX NSCLC = system: EKVX NSCLC
# HCC-2998 colon = system: HCC-2998 colon
# HCT-116 colon = system: HCT-116 colon
# HCT-15 colon = system: HCT-15 colon
# HL-60(TB) leukemia = system: HL-60(TB) leukemia
# HOP-62 NSCLC = system: HOP-62 NSCLC
# HOP-92 NSCLC = system: HOP-92 NSCLC
# HS 578T breast = system: HS 578T breast
# HT29 colon = system: HT29 colon
# IGROV1 ovarian = system: IGROV1 ovarian
# K-562 leukemia = system: K-562 leukemia
# KM12 colon = system: KM12 colon
# LOX IMVI melanoma = system: LOX IMVI melanoma
# M14 melanoma = system: M14 melanoma
# MALME-3M melanoma = system: MALME-3M melanoma
# MCF7 breast = system: MCF7 breast
# MDA-MB-231 breast = system: MDA-MB-231 breast
# MDA-MB-435 = system: MDA-MB-435
# MOLT-4 leukemia = system: MOLT-4 leukemia
# NCI-H226 lung = system: NCI-H226 lung
# NCI-H23 lung = system: NCI-H23 lung
# NCI-H460 lung = system: NCI-H460 lung
# NCI-H522 lung = system: NCI-H522 lung
# NCI/ADR-RES ovarian = system: NCI/ADR-RES ovarian
# OVCAR-3 ovarian = system: OVCAR-3 ovarian
# OVCAR-4 ovarian = system: OVCAR-4 ovarian
# OVCAR-5 ovarian = system: OVCAR-5 ovarian
# OVCAR-8 ovarian = system: OVCAR-8 ovarian
# PC-3 prostate = system: PC-3 prostate
# RPMI-8226 leukemia = system: RPMI-8226 leukemia
# RXF 393 renal = system: RXF 393 renal
# SF-268 CNS = system: SF-268 CNS
# SF-295 CNS = system: SF-295 CNS
# SF-539 CNS = system: SF-539 CNS
# SK-MEL-2 melanoma = system: SK-MEL-2 melanoma
# SK-MEL-28 melanoma = system: SK-MEL-28 melanoma
# SK-MEL-5 melanoma = system: SK-MEL-5 melanoma
# SK-OV-3 ovarian = system: SK-OV-3 ovarian
# SN12C renal = system: SN12C renal
# SNB-19 CNS = system: SNB-19 CNS
# SNB-75 CNS = system: SNB-75 CNS
# SR leukemia = system: SR leukemia
# SW-620 colon = system: SW-620 colon
# T-47D breast = system: T-47D breast
# TK-10 renal = system: TK-10 renal
# U251 CNS = system: U251 CNS
# UACC-257 melanoma = system: UACC-257 melanoma
# UACC-62 melanoma = system: UACC-62 melanoma
# UO-31 renal = system: UO-31 renal
compound,measurement,setting,value
c1ccc(-c2n(Cc3ccc4ccccc4n3)cc[n+]2Cc2ccc3ccccc3n2)cc1,GI50,786-0 renal,5.45 µM
same,TGI,786-0 renal,18.5 µM
same,GI50,A498 renal,1.81 µM
same,TGI,A498 renal,10.1 µM
same,GI50,A549 NSCLC,13.5 µM
same,TGI,A549 NSCLC,51.1 µM
same,GI50,BT-549 breast,1.65 µM
same,TGI,BT-549 breast,8.48 µM
same,GI50,CCRF-CEM leukemia,2.9 µM
same,TGI,CCRF-CEM leukemia,14.7 µM
same,GI50,COLO 205 colon,1.41 µM
same,TGI,COLO 205 colon,4.05 µM
same,GI50,DU-145 prostate,4.29 µM
same,TGI,DU-145 prostate,18.5 µM
same,GI50,EKVX NSCLC,2.91 µM
same,TGI,EKVX NSCLC,31.4 µM
same,GI50,HCC-2998 colon,1.93 µM
same,TGI,HCC-2998 colon,11.7 µM
same,GI50,HCT-116 colon,2.06 µM
same,TGI,HCT-116 colon,11.4 µM
same,GI50,HCT-15 colon,20.2 µM
same,TGI,HCT-15 colon,85.6 µM
same,GI50,HL-60(TB) leukemia,0.399 µM
same,TGI,HL-60(TB) leukemia,1.7 µM
same,GI50,HOP-62 NSCLC,5.66 µM
same,TGI,HOP-62 NSCLC,20.8 µM
same,GI50,HOP-92 NSCLC,0.269 µM
same,TGI,HOP-92 NSCLC,2.47 µM
same,GI50,HS 578T breast,2.76 µM
same,TGI,HS 578T breast,14.3 µM
same,GI50,HT29 colon,2.39 µM
same,TGI,HT29 colon,11.5 µM
same,GI50,IGROV1 ovarian,1.87 µM
same,TGI,IGROV1 ovarian,16.4 µM
same,GI50,K-562 leukemia,0.754 µM
same,TGI,K-562 leukemia,13.6 µM
same,GI50,KM12 colon,1.76 µM
same,TGI,KM12 colon,10.5 µM
same,GI50,LOX IMVI melanoma,2.35 µM
same,TGI,LOX IMVI melanoma,10.8 µM
same,GI50,M14 melanoma,2.35 µM
same,TGI,M14 melanoma,11.5 µM
same,GI50,MALME-3M melanoma,1.57 µM
same,TGI,MALME-3M melanoma,8.02 µM
same,GI50,MCF7 breast,1.87 µM
same,TGI,MCF7 breast,11.1 µM
same,GI50,MDA-MB-231 breast,1.69 µM
same,TGI,MDA-MB-231 breast,8.58 µM
same,GI50,MDA-MB-435,1.8 µM
same,TGI,MDA-MB-435,10.2 µM
same,GI50,MOLT-4 leukemia,4.24 µM
same,TGI,MOLT-4 leukemia,17.2 µM
same,GI50,NCI-H226 lung,1.76 µM
same,TGI,NCI-H226 lung,9.72 µM
same,GI50,NCI-H23 lung,1.23 µM
same,TGI,NCI-H23 lung,9.58 µM
same,GI50,NCI-H460 lung,2.49 µM
same,TGI,NCI-H460 lung,11.9 µM
same,GI50,NCI-H522 lung,1.92 µM
same,TGI,NCI-H522 lung,8.72 µM
same,GI50,NCI/ADR-RES ovarian,> 100 µM
same,TGI,NCI/ADR-RES ovarian,> 100 µM
same,GI50,OVCAR-3 ovarian,1.05 µM
same,TGI,OVCAR-3 ovarian,12.1 µM
same,GI50,OVCAR-4 ovarian,0.709 µM
same,TGI,OVCAR-4 ovarian,7.02 µM
same,GI50,OVCAR-5 ovarian,5 µM
same,TGI,OVCAR-5 ovarian,21.5 µM
same,GI50,OVCAR-8 ovarian,3.25 µM
same,TGI,OVCAR-8 ovarian,13.9 µM
same,GI50,PC-3 prostate,2.64 µM
same,TGI,PC-3 prostate,12.1 µM
same,GI50,RPMI-8226 leukemia,0.269 µM
same,TGI,RPMI-8226 leukemia,5.09 µM
same,GI50,RXF 393 renal,2.8 µM
same,TGI,RXF 393 renal,14 µM
same,GI50,SF-268 CNS,3.32 µM
same,TGI,SF-268 CNS,14.7 µM
same,GI50,SF-295 CNS,3.22 µM
same,TGI,SF-295 CNS,14.5 µM
same,GI50,SF-539 CNS,2.92 µM
same,TGI,SF-539 CNS,13.2 µM
same,GI50,SK-MEL-2 melanoma,1.96 µM
same,TGI,SK-MEL-2 melanoma,5.96 µM
same,GI50,SK-MEL-28 melanoma,0.983 µM
same,TGI,SK-MEL-28 melanoma,12.9 µM
same,GI50,SK-MEL-5 melanoma,0.542 µM
same,TGI,SK-MEL-5 melanoma,1.85 µM
same,GI50,SK-OV-3 ovarian,3.39 µM
same,TGI,SK-OV-3 ovarian,11.8 µM
same,GI50,SN12C renal,2.25 µM
same,TGI,SN12C renal,11.2 µM
same,GI50,SNB-19 CNS,2.18 µM
same,TGI,SNB-19 CNS,13.1 µM
same,GI50,SNB-75 CNS,1.33 µM
same,TGI,SNB-75 CNS,5.07 µM
same,GI50,SR leukemia,1.29 µM
same,TGI,SR leukemia,13.2 µM
same,GI50,SW-620 colon,2.65 µM
same,TGI,SW-620 colon,14.5 µM
same,GI50,T-47D breast,0.498 µM
same,TGI,T-47D breast,7.77 µM
same,GI50,TK-10 renal,5.38 µM
same,TGI,TK-10 renal,18.3 µM
same,GI50,U251 CNS,2.66 µM
same,TGI,U251 CNS,12.4 µM
same,GI50,UACC-257 melanoma,1.01 µM
same,TGI,UACC-257 melanoma,5.21 µM
same,GI50,UACC-62 melanoma,0.675 µM
same,TGI,UACC-62 melanoma,4.17 µM
same,GI50,UO-31 renal,12.6 µM
same,TGI,UO-31 renal,39.2 µM
